Values after ≈ are worked out from the molar mass of the structure shown. Read-outs that look alike come from different tables or passages of the source.
How the values were obtained:
[1] = system: MRSA; details: literature evidence (Taylor et al., 1987); cited from earlier work
[2] = system: Mu50exJapan (VISA); assay: MIC by broth microdilution (experiment B); assay type: cell-based; details: Staphylococcus aureus, combination 1:1, value = mg/L total drug
Method: (§1) Minimum inhibitory concentrations (MICs) of a range of clinical and control bacterial organisms were measured according to BSAC (British Society for Antimicrobial Chemotherapy) guidelines (Andrews 2001), for single agents and combinations of agents, described briefly as follows. MICs were measured by agar dilution (Experiment A) and by broth microdilution (experiment B).
(§2) Stock solutions were prepared at concentrations of 1000 mg/L and 100 mg/L. The appropriate amounts of each stock solution were added to separate Petri dishes give a range of final concentrations (after the addition of 20 mL molten agar): from 0.12 to 32 mg/L. In experiment A, a 1:1 ratio of each agent was added to the appropriate Petri dish so that a 2 mg/L plate contained 2 mg/L of each agent. Volumes (20 mL) of cooled molten IST agar (oxoid) was added to each Petri dish and mixed by swirling. After drying, the plates were stored at 4° C. and protected from light. Plates were used on the day of preparation.
(§3) The test organisms were grown overnight in 5 mL IST broth. […] For the broth microdilution, each well of a microtitre plate was inoculated with diluted overnight culture to give a final inoculum of 5×10^5 cfu/mL. […]
(§4) The MIC is the minimum amount of an antibiotic at which there is no visible growth of bacteria. Tiny single colonies or faint hazes were not counted as growth.

[3] = system: VISA 3900 UK (VISA); assay: MIC by broth microdilution (experiment B); assay type: cell-based; details: Staphylococcus aureus, combination 1:1, value = mg/L total drug
Method: as §1, §2, §3, §4

[4] = system: USA/VISA) 5827 (VISA; assay: MIC by broth microdilution (experiment B); assay type: cell-based; details: Staphylococcus aureus, combination 1:1, value = mg/L total drug
Method: as §1, §2, §3, §4

[5] = system: USA/VISA 5836 (VISA); assay: MIC by broth microdilution (experiment B); assay type: cell-based; details: Staphylococcus aureus, combination 1:1, value = mg/L total drug
Method: as §1, §2, §3, §4

[6] = system: S. epidermidis 1228; assay: MIC by broth microdilution (experiment B); assay type: cell-based; details: Staphylococcus epidermidis, combination 1:1, value = mg/L total drug
Method: as §1, §2, §3, §4

[7] = system: 25 different MRSA isolates and 5 VRE isolates; assay: Pooled MIC testing (MIC50, MIC90, range); assay type: cell-based; details: 25 MRSA isolates and 5 VRE isolates
Excerpt: The MIC50 is the minimum inhibitory concentration required to inhibit the growth of 50% of the strains tested, and the MIC90, the concentration required to inhibit the growth of 90% of the strains tested.

| Structure (SMILES) | antibacterial activity against MRSA [1] | MIC [3] [µg/mL] | MIC [5] [µg/mL] | MIC [6] [µg/mL] | further results |
| --- | --- | --- | --- | --- | --- |
| CCN(CC)C(=S)S [DDTC, diethyldithiocarbamate] | some antibacterial activity | – | – | – | – |
| CCN(CC)C(=S)SSC(=S)N(CC)CC [Disulfiram (ethanol), disulfiram] | some antibacterial activity | – | – | – | – |
| Clc1ccc(COC(Cn2ccnc2)c2ccc(Cl)cc2Cl)cc1 (stereo not drawn) [Econazole, 1-[2-[(4-Chlorphenyl)methoxy]-2-(2,4-dichlorophenyl)ethyl]-1H-imidazole] | – | 8 | 8 | 2 | MIC [2]: 8 µg/mL; MIC [4]: 4 µg/mL |
| Clc1ccc(COC(Cn2ccnc2)c2ccc(Cl)cc2Cl)c(Cl)c1 (stereo not drawn) [Miconazole, 1-[2-(2,4-Dichlorophenyl)-2-[(2,4-dichlorophenyl)methoxy]ethyl]-1H-imidazole] | – | 2 | 8 | 2 | Range of MICs [7]: 0.5 to 8 mg/L; MIC50 ([7]; concentration inhibiting growth of 50% of strains): 2 µg/mL (≈ 4.81 µM); MIC90 ([7]; concentration inhibiting growth of 90% of strains): 2 µg/mL (≈ 4.81 µM); MIC ([7]; read-out: highest MIC): 8 µg/mL (≈ 19.2 µM); MIC ([7]; read-out: lowest MIC): 0.5 µg/mL (≈ 1.2 µM) |
